Assay results reported in patent US20160289594A1, “USE OF CNGA2 AGONISTS FOR ENHANCING THE OLFACTORY EFFECT OF AN ODORANT” (Henkel AG & Co. KGaA, priority 2013, published 2016).

Test system: CNGA2 ion channel
Test: Experiments with skatole on direct activation of the CNGA2 ion channel
Type: cell-based, human
Details: CNGA2 ion channel of all odor receptor cells, in addition to specific odor receptors

**Q.** Which “Activation of the CNGA2 ion channel” value does the source give for Cc1c[nH]c2ccccc12 [skatole, 3-methylindole] here?
**A.** directly activates
